Measurements taken from patent US11041207B2 (priority 2015, dated 2021).
“And” between values parts separate entries of the source, which are not always exact repeats. Equal values may be shown once. “Also recorded” adds a separate entry of the source.

Assays:
[1] = in vivo; cited from earlier work
[2] = human, in vivo
[3] = tested on: schizophrenia patients; conditions: human, in vivo
[4] = set-up: species or system human; conditions: in vivo
[5] = human, in vivo; remark: listed apart in the source
[6] = human, in vivo; remark: listed apart in the source
[7] = tested on: bipolar disorder patients; conditions: in vivo; cited from earlier work

Row | Compound | effect on circulating proline [1] | L-serine level [2] | fasting glycine level [2] | β (95% CI), bivariate association of VPA treatment with total SANS score [3] | β, SANS total score of Val/Val versus Val/Met and Met/Met patients [3] | patients showing improvement in negative symptoms after treatment onset [4] | fasting plasma proline, mean±SD [5] | fasting plasma proline versus patients who did not receive VPA [6] | blood level considered the lower end of the therapeutic range [7]
1 | CCO [Ethanol] | increases circulating proline levels |  |  |  |  |  |  |  | 
2 | CCCC(CCC)C(=O)O [VPA, 2-propylpentanoic acid] | upregulates circulating proline; also recorded: strong up-regulator of proline levels | 117 µM | 361 µM | −0.578 (−7.157, 6.001) | −12.17 | 2 out of 9 and 5 out of 7 and two and five | 299.29±94.76 | significantly higher | 50 µg/mL
